{"source": "paper PMC7809101", "about": "“Fetal bovine serum albumin inhibits antimicrobial peptide activity and binds drug only in complex with α1-antitrypsin” (Scientific Reports, 2021)", "molecules": {"B1": {"name": "protein B: bovine α1-antitrypsin, free form, purified from fetal bovine serum (protein)", "chain": "GVLQGHAVQETDDTSHQEAACHKIAPNLANFAFSIYHHLAHQSNTSNIFFSPVSIASAFAMLSLGAKGNTHTEILKGLGFNLTELAEAEIHKGFQHLLHTLNQPNHQLQLTTGNGLFINESAKLVDTFLEDVKNLYHSEAFSINFRDAEEAKKKINDYVEKGSHGKIVELVKVLDPNTVFALVNYISFKGKWEKPFEMKHTTERDFHVDEQTTVKVPMMNRLGMFDLHYCDKLASWVLLLDYVGNVTACFILPDLGKLQQLEDKLNNELLAKFLEKKYASSANLHLPKLSISETYDLKSVLGDVGITEVFSDRADLSGITKEQPLKVSKALHKAALTIDEKGTEAVGSTFLEAIPMSLPPDVEFNRPFLCILYDRNTKSPLFVGKVVNPTQA"}}, "key": {"[1]": {"target": "T1, protein D (albumin and α1-antitrypsin complex) (Bos taurus, UniProt P02769+P34955)", "T1 construct": "The active components were further purified by fast performance liquid chromatography (FPLC) Mono Q and S12 column chromatography from the 70% saturated fraction; from tissue; host or cells: fetal bovine serum (70% ammonium sulfate fraction, FPLC Mono Q and Superose 12)", "T1 sequence (P02769 25-607, one chain of several)": "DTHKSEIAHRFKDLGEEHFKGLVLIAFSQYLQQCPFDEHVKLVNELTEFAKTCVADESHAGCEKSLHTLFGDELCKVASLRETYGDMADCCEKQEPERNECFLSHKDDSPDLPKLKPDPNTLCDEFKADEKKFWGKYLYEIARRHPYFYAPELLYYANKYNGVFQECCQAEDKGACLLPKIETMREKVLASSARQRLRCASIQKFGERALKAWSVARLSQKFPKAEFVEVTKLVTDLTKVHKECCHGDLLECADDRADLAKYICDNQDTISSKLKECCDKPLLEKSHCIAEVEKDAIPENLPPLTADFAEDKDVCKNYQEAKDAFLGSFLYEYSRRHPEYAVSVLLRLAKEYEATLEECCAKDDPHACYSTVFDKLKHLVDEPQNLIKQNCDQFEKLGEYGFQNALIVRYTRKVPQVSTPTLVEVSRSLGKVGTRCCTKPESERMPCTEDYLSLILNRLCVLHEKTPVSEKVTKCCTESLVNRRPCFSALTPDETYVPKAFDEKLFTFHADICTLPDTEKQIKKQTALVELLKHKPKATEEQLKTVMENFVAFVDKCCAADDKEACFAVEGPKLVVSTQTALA", "assay": "Fluorescence emission spectrum (blue shift), protein D", "assay_type": "binding, bovine", "conditions": "protein D 0.75 μM, PC buffer, 25 °C, 30 min; excitation 285 nm, emission 300–450 nm; reagent up to: sarkosyl 320, TP4-A12I,A15I 120, ibuprofen 24, phenytoin 20 μM", "description": "(§1) The mixtures were excited by 285 nm and its emission spectra were recorded between 300 and 450 nm using a temperature-controlled fluorimeter (FP8500, Jasco, Japan)[13]."}, "protein A (albumin)": {"target": "protein A (albumin) (Bos taurus, UniProt P02769)", "sequence (P02769 25-607)": "as the sequence (P02769 25-607, one chain of several) above", "assay": "Fluorescence emission spectrum (blue shift), protein A", "assay_type": "binding, bovine", "set-up": "The homogeneities of collected protein A (albumin), protein B (α1-antitrypsin), protein C (serotransferrin) and protein D complex; from tissue; host or cells: fetal bovine serum (70% ammonium sulfate fraction, FPLC Mono Q)", "conditions": "protein A 0.75 μM, PC buffer, 25 °C, 30 min; excitation 285 nm, emission 300–450 nm; reagent up to: sarkosyl 320, TP4-A12I,A15I 120, ibuprofen 24, phenytoin 20 μM", "description": "as §1"}, "human serum albumin": {"system": "human serum albumin", "conditions": "cited from earlier work"}, "[2]": {"system": "Escherichia coli K-12 (MG1655)", "assay": "Antimicrobial (bactericidal) activity against E. coli, effect of serum or serum proteins", "assay_type": "cell-based", "conditions": "5% (v/v) FBS in PBS, 37 °C; remaining viable cells (cfu)", "description": "The Gram-negative bacteria Escherichia coli K-12 (MG1655) was cultured and plated in/on Luria–Bertani broth/agar plate (Merck Millipore, Darmstadt, Germany). The Gram-positive Staphylococcus aureus (ATCC 6538P) was cultured and plated in tryptic soy broth/agar (BD, MD, USA). The fungus Candida albicans (ATCC 14,053) was cultured and plated in YM broth/agar (BD, MD, USA). The bacteria were grown overnight, washed, and diluted 1:2000 in phosphate buffered saline (PBS), pH 7.5 or DMEM (Life Biotech, California, USA), pH 7.4. Bacteria (ca. 1 × 10^6 colony-forming units, cfu) were mixed with antimicrobial peptides (AMP) in 100 μl PBS and incubated at 37 °C (for bacteria) and at 30 °C (for fungus). Serial dilutions of each AMP-treated bacteria in PBS/DMEM supplemented with FBS were prepared and plated for the determination of remaining viable cells (expressed as cfu). At least three independent experiments were performed for each assay to determine the average value with standard deviation. MBC was defined as the lowest AMP concentration that kills 99.9% of the original inoculum."}, "bovine serum albumin": {"system": "bovine serum albumin", "set-up": "method as in PMID 24456893, PMID 18779351, PMID 17569519", "conditions": "ref [12],[16],[17]; cited from earlier work", "description": "(§2) Albumin is the most abundant protein in human serum (HSA, 45 mg/ml), followed in descending order by α1-antitrypsin (A1AT, 3.5 mg/ml), transferrin (2.5 mg/ml), α2-macroglobulin (2.5 mg/ml), haptoglobulin (1.8 mg/ml), low-density lipoprotein (LDL, 1.2 mg/ml), α1-acid glycoprotein (AGP, 0.8 mg/ml) and high-density lipoprotein (HDL, 0.6 mg/ml)[11]. These proteins are involved in the transportation of fatty acids, cholesterols, toxins and drugs in the blood stream."}, "human serum components": {"system": "human serum components", "conditions": "cited from earlier work", "description": "as §2"}, "fetal bovine serum (FBS)": {"system": "fetal bovine serum (FBS)", "assay": "Band shift of AMPs by fetal bovine serum", "assay_type": "binding", "conditions": "10–40% FBS; AMP 4 μg; PC buffer, room temperature, 30 min; horizontal native 8% PAGE", "description": "(§3) Various AMPs (4 μg each) were incubated with fetal bovine serum (FBS) components at room temperature in 10 μl PC buffer for 30 min and subjected to horizontal native 8% PAGE, pH8.0 or pH8.8, and Coomassie Blue staining."}, "[3]": {"target": "T2, protein B (α1-antitrypsin) (Bos taurus, UniProt P34955)", "T2 sequence (P34955 25-416)": "B1 chain", "assay": "Band shift of AMPs by protein B", "assay_type": "binding, bovine", "set-up": "The homogeneities of collected protein A (albumin), protein B (α1-antitrypsin), protein C (serotransferrin) and protein D complex; from tissue; host or cells: fetal bovine serum (70% ammonium sulfate fraction, FPLC Mono Q)", "conditions": "AMP 4 μg; protein 10 μg (Suppl. Fig. 3a); PC buffer, room temperature, 30 min; 8% horizontal native PAGE", "description": "as §3"}, "[4]": {"target": "T1, protein D (albumin and α1-antitrypsin complex)", "assay": "Band shift of AMPs by protein D", "assay_type": "binding, bovine", "conditions": "AMP 4 μg; protein 10 μg (Suppl. Fig. 3a); PC buffer, room temperature, 30 min; 8% horizontal native PAGE"}, "trypsin": {"system": "trypsin", "assay": "Antitrypsin activity analysis", "assay_type": "biochemical", "conditions": "trypsin 2 ng (0.2 μg/ml) pre-incubated 30 min, PC buffer, 37 °C, 15% reduced SDS-PAGE; for inhibition of proteolytic activity of trypsin toward SAAP159: substrate SAAP159 4 μg (0.4 mg/ml); for inhibition of proteolytic activity of trypsin toward TP4: substrate TP4 2 μg (0.2 mg/ml)", "description": "The inhibitions of trypsin’s proteolytic activity by serum components on peptides TP4 and SAAP159 were determined as follows. Freshly diluted trypsin (2 ng; 0.2 μg/ml) was pre-incubated with various concentrations of serum components in PC buffer for 30 min before the mixture was added to TP4 (2 μg; 0.2 mg/ml) or SAAP159 (4 μg/; 0.4 mg/ml) peptides in 10 μl PC buffer at 37 °C for 30 min. The digested peptide fragments were analyzed by 15% reduced SDS-PAGE and Coomassie Blue staining."}, "[5]": {"target": "biotinylated TP4-A12I,A15I (tilapia)", "assay": "BLI; Octet RED384; biotinylated TP4-A12I,A15I (10 μM) immobilised on a Streptavidin biosensor; serial dilutions of serum components in PC buffer as analyte; global fit (1:1)"}}, "data": [{"molecule": "CCCCCCCCCCCC(=O)N(C)CC(=O)[O-].[Na+]", "note": "[sarkosyl]", "values": [{"measurement": "blue shift of fluorescence emission spectrum, protein D", "setting": "[1]", "value": "caused blue shifts"}, {"measurement": "blue shift of fluorescence emission spectrum, protein A", "setting": "protein A (albumin)", "value": "caused blue shifts"}]}, {"molecule": "CC(=O)CC(c1ccccc1)c1c(O)c2ccccc2oc1=O", "note": "(stereo not drawn) [warfarin]", "values": [{"measurement": "bound to site I of human albumin", "setting": "human serum albumin; site I, ref [8]–[10]", "value": "More than 90%"}]}, {"molecule": "Polymyxin B", "values": [{"measurement": "effect of FBS on antimicrobial activity against E. coli", "setting": "[2]", "value": "not"}]}, {"molecule": "COc1c(N2C[C@@H]3CCCN[C@@H]3C2)c(F)cc2c(=O)c(C(=O)O)cn(C3CC3)c12", "note": "[moxifloxacin]", "values": [{"measurement": "bound and inhibited by bovine serum albumin", "setting": "bovine serum albumin", "value": "bound and inhibited"}]}, {"molecule": "daptomycin", "values": [{"measurement": "bound by human serum albumin", "setting": "human serum albumin", "value": "90-94%"}, {"measurement": "bound to human serum components", "setting": "human serum components", "value": "90-94%"}, {"measurement": "order of binding to human serum components", "setting": "human serum components", "value": "albumin > > α1-antitrypsin > low-density lipoprotein > high-density lipoprotein > transferrin"}]}, {"molecule": "Iseganan [reference compound]", "values": [{"measurement": "effect of FBS on antimicrobial activity against E. coli", "setting": "[2]", "value": "serum-mediated repression"}, {"measurement": "mobility of AMP in band shift assay with FBS", "setting": "fetal bovine serum (FBS)", "value": "retarded"}, {"measurement": "binding to protein B (band shift)", "setting": "[3]", "value": "not by protein A and protein B"}, {"measurement": "binding to protein D (band shift)", "setting": "[4]", "value": "also bound by protein D"}]}, {"molecule": "protein A: bovine serum albumin, free form, purified from fetal bovine serum", "values": [{"measurement": "inhibition of proteolytic activity of trypsin toward SAAP159", "setting": "trypsin", "value": "only minimally affected"}, {"measurement": "inhibition of proteolytic activity of trypsin toward TP4", "setting": "trypsin", "value": "only minimally affected"}]}, {"molecule": "CO/N=C(\\C(=O)N[C@@H]1C(=O)N2C(C(=O)O)=C(CSc3nc(=O)c(=O)[nH]n3C)CS[C@H]12)c1csc(N)n1", "note": "[ceftriaxone]", "values": [{"measurement": "bound and inhibited by human serum albumin", "setting": "human serum albumin; ref [12],[16],[17]", "value": "bound and inhibited"}, {"measurement": "bound and inhibited by bovine serum albumin", "setting": "bovine serum albumin", "value": "bound and inhibited"}]}, {"molecule": "protein D complex (albumin and α1-antitrypsin) (from UniProt P02769 25-607; P34955 25-416)", "values": [{"measurement": "Kd", "setting": "[5]", "value": 21.7, "unit": "nM"}]}, {"molecule": "protein D: albumin and α1-antitrypsin complex linked by disulfide bond, from fetal bovine serum", "values": [{"measurement": "inhibition of proteolytic activity of trypsin toward SAAP159", "setting": "trypsin", "value": "repressed"}, {"measurement": "inhibition of proteolytic activity of trypsin toward TP4", "setting": "trypsin", "value": "repressed"}]}, {"molecule": "B1", "values": [{"measurement": "inhibition of proteolytic activity of trypsin toward SAAP159", "setting": "trypsin", "value": "repressed"}, {"measurement": "inhibition of proteolytic activity of trypsin toward TP4", "setting": "trypsin", "value": "repressed"}]}]}
